Read-outs that look alike come from different tables or passages of the source.
Assays:
S1R = target: T1, S1R (Cavia porcellus, UniProt Q60492); assay: S1R radiolabeled binding assay, guinea pig whole brain, [3H]-pentazocine
T1 construct: performed using Guinea pig whole brain according to the protocol previously reported; from tissue; host or cells: guinea pig whole brain membrane preparations
Method: Following 1 h incubation at 25° C., the binding assay was terminated by addition of cold buffer. The mixture was then filtered through Whatman GF/B filters and washed with cold buffer. Radioactivity was identified using the liquid scintillation counter.
Receptor binding data were analyzed by nonlinear regression of saturation and competition curves using the GraphPad Prism 7.0 software (GraphPad Software, La Jolla, Calif.).
(§1) Radiolabeled binding assays were conducted using two different species.

human S2R = target: T2, human S2R (Homo sapiens, UniProt Q5BJF2); assay: Human S2R radiolabeled binding assay, Jurkat Clone E6-1 cell membranes, [3H] DTG; details: for Ki: human membranes (Compounds 10-76); for S2R % at 1 μM: human membranes
T2 construct: performed using Jurkat cell line Clone E6-1 cells with 0.025 μM; endogenous in cells; host or cells: Jurkat Clone E6-1 cell membranes
T2 sequence (Q5BJF2 whole entry): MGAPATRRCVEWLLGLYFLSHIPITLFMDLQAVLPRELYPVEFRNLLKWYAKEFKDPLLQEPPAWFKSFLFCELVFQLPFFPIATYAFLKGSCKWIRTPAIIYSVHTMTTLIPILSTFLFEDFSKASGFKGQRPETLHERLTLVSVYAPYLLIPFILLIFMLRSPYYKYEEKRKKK
Method: The radiolabeled binding assay of the human S1R and S2R were performed using human jurkat cell membranes according to the protocol previously reported (Ganapathy, et al., 1999, J. Pharmacol. Exp. Ther. 289:251-60).
DTG as radioligand. […] The cells were incubated in RPMI 1640 Medium with 10% FBS, 100 U/ml penicillin and […] streptomycin. After incubation, the cells were suspended in 5 mM potassium phosphate buffer (pH=7.6). The membrane protein concentration was controlled at 5 mg/mL. The collected membrane protein was incubated with ligands in potassium phosphate buffer for 1 hour at room temperature and terminated by adding ice-cold buffer. Then the mixture is filtered with 0.7 μm syringe filter and washed three times. The radioactivity is determined by liquid scintillation spectrometry.
Radiolabeled binding assays were conducted using two different species. Compounds 1-9 were assayed using guinea pig brain membranes for the binding assays. Compounds 10-76 were assayed using human brain membranes for the binding assays.

human S1R = target: T3, human S1R (Homo sapiens, UniProt Q99720); assay: Human S1R radiolabeled binding assay, human jurkat cell membranes, [3H]-pentazocine; details: human membranes (Compounds 10-76)
T3 construct: experimentally determined in human jurkat cell membranes using 15.0 nM; endogenous in cells; host or cells: human Jurkat cell membranes
T3 sequence (Q99720 whole entry): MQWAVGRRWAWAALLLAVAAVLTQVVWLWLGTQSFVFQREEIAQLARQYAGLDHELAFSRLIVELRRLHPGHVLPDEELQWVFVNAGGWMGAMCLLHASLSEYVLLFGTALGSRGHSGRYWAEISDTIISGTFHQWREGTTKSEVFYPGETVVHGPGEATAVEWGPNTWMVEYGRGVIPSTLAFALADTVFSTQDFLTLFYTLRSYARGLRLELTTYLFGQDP
Method: The binding process was terminated by addition of cold buffer. Then, the mixture was filtered and washed with cold buffer. Radioactivity was identified using the TopCount NTX liquid scintillation counter (PerkinElmer, Waltham, Mass.).
as §1

[1] = guinea pig brain membranes (Compounds 1-9), read-out: S1R Ki

T1 sequence (Q60492 whole entry): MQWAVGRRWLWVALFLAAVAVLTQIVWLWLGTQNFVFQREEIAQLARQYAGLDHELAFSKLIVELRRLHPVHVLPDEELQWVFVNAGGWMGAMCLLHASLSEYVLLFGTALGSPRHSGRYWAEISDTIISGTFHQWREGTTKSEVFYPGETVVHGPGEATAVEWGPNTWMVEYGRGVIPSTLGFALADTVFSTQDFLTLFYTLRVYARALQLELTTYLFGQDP

SMILES | Ki (human S2R) | Ki (human S1R) | also measured
Cn1nc(CN2CCCCC2)nc1-c1ccc(C(C)(C)C)cc1 [Compound 1, 1-((5-(4-(tert-butyl)phenyl)-1-methyl-1H-1,2,4-triazol-3-yl)methyl)piperidine] |  |  | Ki (S1R; [1]): 3.72 nM
Cn1nc(CN2CCOCC2)nc1-c1ccc(C(C)(C)C)cc1 [Compound 2, 4-((5-(4-(tert-butyl)phenyl)-1-methyl-1H-1,2,4-triazol-3-yl)methyl)morpholine] |  |  | Ki (S1R; [1]): 56 nM
CN1CCN(Cc2nc(-c3ccc(C(C)(C)C)cc3)n(C)n2)CC1 [Compound 3, 1-((5-(4-(tert-butyl)phenyl)-1-methyl-1H-1,2,4-triazol-3-yl)methyl)-4-methylpiperazine] |  |  | Ki (S1R; [1]): 131 nM
Cn1nc(CN2CCN(c3ccccc3)CC2)nc1-c1ccc(C(C)(C)C)cc1 [Compound 4, 1-((5-(4-(tert-butyl)phenyl)-1-methyl-1H-1,2,4-triazol-3-yl)methyl)-4-phenylpiperazine] |  |  | Ki (S1R): 14.3 nM
Cn1nc(CN2CCN(CCc3ccccc3)CC2)nc1-c1ccc(C(C)(C)C)cc1 [Compound 5, 1-((5-(4-(tert-butyl)phenyl)-1-methyl-1H-1,2,4-triazol-3-yl)methyl)-4-phenethylpiperazine] |  |  | Ki (S1R): 10.2 nM
Cn1nc(CN2CCN(Cc3ccccc3)CC2)nc1-c1ccc(C(C)(C)C)cc1 [Compound 6, 1-benzyl-4-((5-(4-(tert-butyl)phenyl)-1-methyl-1H-1,2,4-triazol-3-yl)methyl)piperazine] |  |  | Ki (S1R; [1]): 5.52 nM
Cn1nc(CN2CCC(Cc3ccccc3)CC2)nc1-c1ccc(C(C)(C)C)cc1 [Compound 7, 4-benzyl-1-((5-(4-(tert-butyl)phenyl)-1-methyl-1H-1,2,4-triazol-3-yl)methyl)piperidine] |  |  | Ki (S1R; [1]): 2.02 nM
CN(Cc1nc(-c2ccc(C(C)(C)C)cc2)n(C)n1)CC1CC1 [Compound 9, 1-(5-(4-(tert-butyl)phenyl)-1-methyl-1H-1,2,4-triazol-3-yl)-N-(cyclopropylmethyl)-N-methylmethanamine] |  |  | Ki (S1R; [1]): 0.61 nM
Cn1nc(CN2CCCC2)nc1-c1ccc(C2(C(F)(F)F)CC2)cc1 [Compound 10, 1-methyl-3-(pyrrolidin-1-ylmethyl)-5-(4-(1-(trifluoromethyl)cyclopropyl)phenyl)-1H-1,2,4-triazole] | > 1000 nM | 9.9 nM | 
Cn1nc(CN2CCCC2)nc1-c1ccc(Cl)c(Cl)c1 [Compound 11, 5-(3,4-dichlorophenyl)-1-methyl-3-(pyrrolidin-1-ylmethyl)-1H-1,2,4-triazole] | > 1000 nM | 22.1 nM | 
Cc1cc(-c2nc(CN3CCCC3)nn2C)ccc1C(F)(F)F [Compound 13, 1-methyl-5-(3-methyl-4-(trifluoromethyl)phenyl)-3-(pyrrolidin-1-ylmethyl)-1H-1,2,4-triazole] | > 1000 nM | 20.8 nM | 
Cn1nc(CN2CCCC2)nc1-c1ccc2c(c1)CCCC2 [Compound 15, 1-methyl-3-(pyrrolidin-1-ylmethyl)-5-(5,6,7,8-tetrahydronaphthalen-2-yl)-1H-1,2,4-triazole] | > 1000 nM | 35.7 nM | 
Cn1nc(CN2CCCC2)nc1-c1cccc(C2(C(F)(F)F)CC2)c1 [Compound 17, 1-methyl-3-(pyrrolidin-1-ylmethyl)-5-(3-(1-(trifluoromethyl)cyclopropyl)phenyl)-1H-1,2,4-triazole] | > 1000 nM | 32.3 nM | 
Cn1nc(CN2CCCC2)nc1-c1ccc2cc(Cl)sc2c1 [Compound 25, 5-(2-chlorobenzo[b]thiophen-6-yl)-1-methyl-3-(pyrrolidin-1-ylmethyl)-1H-1,2,4-triazole] | > 1000 nM | 37 nM | 
Cn1nc(CN2CCC(C)(C)C2)nc1-c1ccc(C(C)(C)C)cc1 [Compound 26, 5-(4-(tert-butyl)phenyl)-3-((3,3-dimethylpyrrolidin-1-yl)methyl)-1-methyl-1H-1,2,4-triazole] | 190 nM | 0.89 nM | 
CCn1nc(CN2CCCC2)nc1-c1ccc(C(C)(C)C)cc1 [Compound 30, 5-(4-(tert-butyl)phenyl)-1-ethyl-3-(pyrrolidin-1-ylmethyl)-1H-1,2,4-triazole] | 1710 nM | 4.8 nM | 
CC(C)n1nc(CN2CCCC2)nc1-c1ccc(C(C)(C)C)cc1 [Compound 31, 5-(4-(tert-butyl)phenyl)-1-isopropyl-3-(pyrrolidin-1-ylmethyl)-1H-1,2,4-triazole] | 1460 nM | 2.16 nM | 
CC(C)(C)c1ccc(-c2nc(CN3CCCC3)nn2C2CC2)cc1 [Compound 32, 5-(4-(tert-butyl)phenyl)-1-cyclopropyl-3-(pyrrolidin-1-ylmethyl)-1H-1,2,4-triazole] | 750 nM | 13.9 nM | 
CCn1nc(CN2CCC3(CCCC3)C2)nc1-c1ccc(C(C)(C)C)cc1 [Compound 65, 2-((5-(4-(tert-butyl)phenyl)-1-ethyl-1H-1,2,4-triazol-3-yl)methyl)-2-azaspiro[4.4]nonane] |  | 0.52 nM | S2R % at 1 μM (human S2R): 96% at 1 μM
CCn1nc(CN2CC3CCCC3C2)nc1-c1ccc(C(C)(C)C)cc1 (stereo not shown) [Compound 66, 2-((5-(4-(tert-butyl)pheny)-1-ethyl-1H-1,2,4-triazol-3-yl)methyl)octahydrocyclopenta[c]pyrrole] |  | 0.57 nM | S2R % at 1 μM (human S2R): 73% at 1 μM
CC(C)(C)c1ccc(-c2nc(CN3CCC4(CCCC4)C3)nn2C2CC2)cc1 [Compound 75, 2-((5-(4-(tert-butyl)phenyl)-1-cyclopropyl-1H-1,2,4-triazol-3-yl)methyl)-2-azaspiro[4.4]nonane] |  | 0.56 nM | S2R % at 1 μM (human S2R): 105% at 1 μM

— patent publication US20220363649A1, “ORGANIC COMPOUNDS” (Rutgers, The State University of New Jersey, priority 2018, published 2022)
